# Reference: patent publication EP0939136A1, “Assay for predicting the angiographic response to lipid-lowering therapy in patients” (Academisch Ziekenhuis bij de Universiteit van Amsterdam, priority 1998, dated 1999)
# Legend:
# Format in all cases: in vivo, male patients
# [1] = REGRESS trial: in-trial changes in plasma lipids and lipoproteins; conditions: 40 mg/day, two years
# Procedure: (§1) 807 Male patients participating in the Regression Growth Evaluation Statin Study (REGRESS), which has previously been described in detail (Kuivenhoven et al., Arterioscler. Thromb. Vasc. Biol. 17:560-568 (1997)) were prospectively studied. In short, study participants were required to have at least one coronary artery with a stenosis off >50 percent as assessed by coronary angiography, a plasma total cholesterol concentration of 155-310 mg per deciliter (4 to 8 millimole per liter) and triglycerides of 350 mg per deciliter(< 4 millimole per liter). Patients were subsequently randomized to treatment with pravastatin sodium (Pravachol®; 40 mg/day ) or to placebo for a period of two years. The placebo group contained 396 patients and the group treated with pravastatin contained 411 patients.
# Plasma lipids and lipoproteins were measured using standard techniques (Groenemeyer et al., Circulation 95:2628-2653 (1997)). Due to a lack of sufficient aliquots of plasma, CETP concentrations were determined in 237 patients at baseline, and in only 68 pravastatin-treated subjects at the end of the trial. These measurements were performed by solid phase radioimmunoassay using recombinant human protein (provided by Dr. A.Tall; Columbia University, New York) as standard and a CETP monoclonal antibody, TP2 (produced by Dr. R. Milne; University of Ottawa Heart Institute; Ottawa, McPherson et al., Arterioscler. Thromb 11:797-804 (1991). In addition, the lipase and lipoprotein lipase activities were measured as reported (Groenemeyer et al., supra).
# (§2) The differences between carriers of the three TaqIB genotypes (i.e. B1B1, B1B2, and B2B2) were tested using one-way ANOVA or Pearson's Chi-square test. Changes in lipids, lipoproteins and angiographic parameters during the trial period were quantified with means and standard deviations, and the differences within the two medication groups were tested using one-way covariance analysis with baseline levels as covariates.
# [2] = tested on: CETP; assay: Plasma CETP concentration by solid phase radioimmunoassay; conditions: 68 pravastatin-treated subjects, P<0.001
# Procedure: as §1
# Plasma lipids and lipoproteins were measured using standard techniques (Groenemeyer et al., Circulation 95:2628-2653 (1997)). Due to a lack of sufficient aliquots of plasma, CETP concentrations were determined in 237 patients at baseline, and in only 68 pravastatin-treated subjects at the end of the trial. […]
# [3] = REGRESS trial: computer-assisted quantitative coronary angiography (MSD, MOD); conditions: for MOD decrease: median (IQR) / MSD decrease: mean (SD): 40 mg/day, two years, larger figure = more progression of atherosclerosis
# Procedure: as §1
# Computer-assisted quantitative coronary angiography was carried out at the start and at the end of the study. The two following primary measures of outcome were used: (a) the change in the average Mean Segment Diameter (MSD) per patient (also known as Mean Lumen Diameter) reflecting diffuse changes of atherosclerosis, and (b) the change in the average Minimum Obstruction Diameter […]) which reflects the focal change of atherosclerosis. Given these definitions, one should note that a greater decrease in MSD and/or MOD reflects more progression of coronary atherosclerosis.
# as §2
# The interaction between the three CETP TaqIB genotypes and medication (placebo/pravastatin) was tested using the interaction test of two-way covariance analysis. It was checked whether the above interaction between genotype and medication was dependent of baseline HDL cholesterol concentration, changes in HDL during the trial, baseline MSD, baseline MOD, and each of hepatic lipase or lipoprotein lipase activity by using these as covariates in two-way covariance analysis. The latter analysis was also carried out to test if the significant differences in decrease in either MSD or MOD as identified amongst the TaqIB subgroups in the placebo group, were dependent on the above parameters.
# [4] = REGRESS trial: events (death and myocardial infarction); conditions: 40 mg/day, two years
# Procedure: as §1
# Differences in rate of events between genotypes were analyzed with Pearson Chi-square tests within the medication groups, and the interaction between genotype and medication with logistic regression. Within each of the patient groups, the Hardy-Weinberg equilibrium was tested by means of gene counting and χ^2 analysis. Throughout, a P value of 0.05 was interpreted as representing a statistically significant difference. All statistical analyses were carried out with the Statistical Analysis System (SAS, version 6.1, SAS Institute, Cari, NC) and adapted from the EGRET Manual, (Statistical and Epidemiological Research Corporation, 1991, Seattle, Washington, USA).
# Abbreviations: MSD = mean segment Diameter; MOD = minimum obstruction diameter (Note: A larger figure for either a decrease in mean segment diameter (MSD) or minimum obstruction diameter (MOD) indicates more progression of atherosclerosis). SD = standard deviation; IQR = interquartile range; * P value of covariance analysis of the change measures with baseline values as covariate, or chi-square test (where appropriate), comparing the three CETP-TaqIB genotypes; ^† P value of the interaction test of the interaction between treatment (placebo/pravastatin) and the CETP TaqIB genotype (B1B1-B1B2-B2B2) of covariance analysis with baseline values as covariate or of logistic regression, where appropriate. P values while comparing TaqIB subgroup of the placebo group with the pravastatin group: ^‡ P<0.001; ^§ P<0.38; ^¶ P<0.30; ^¥ P<0.002; ** P<0.01; ^†† P<0.48. ? Events are defined as death and myocardial infarction. For conversion from mg.dL^-1 to mmol.L^-1 for total cholesterol, LDL cholesterol and HDL cholesterol levels, multiply by factor 0.02586. For conversion of triglyceride levels from mg.dL^-1 to mmol.L^-1, use 0.01129. [formula] [formula] [formula]
# [5] = CETP TaqIB genotype B1B1 (n=136)
# [6] = CETP TaqIB genotype B1B2 (n=212)
# [7] = CETP TaqIB genotype B2B2 (n=63)
smiles,measurement,setting,value
"CC[C@H](C)C(=O)O[C@H]1C[C@H](O)C=C2C=C[C@H](C)[C@H](CC[C@@H](O)C[C@@H](O)CC(=O)O)[C@H]21 [Pravastatin, pravastatin sodium]",HDL cholesterol incr.: mean (SD),[1]; [5],4.3 (6.2) mg.dL^-1
same,LDL cholesterol red.: mean (SD),[1]; [5],56.8 (26.7) mg.dL^-1
same,Total cholesterol red.: mean (SD),[1]; [5],53.8 (32.1) mg.dL^-1
same,Triglyceride red.: ln(g.mean) (CV),[1]; [5],7.1 (32.8) mg.dL^-1
same,HDL cholesterol incr.: mean (SD),[1]; [6],3.9 (7.0) mg.dL^-1
same,LDL cholesterol red.: mean (SD),[1]; [6],49.5 (29) mg.dL^-1
same,Total cholesterol red.: mean (SD),[1]; [6],48.3 (32.5) mg.dL^-1
same,Triglyceride red.: ln(g.mean) (CV),[1]; [6],7.1 (37.2) mg.dL^-1
same,HDL cholesterol incr.: mean (SD),[1]; [7],3.5 (6.6) mg.dL^-1
same,LDL cholesterol red.: mean (SD),[1]; [7],56.5 (33.6) mg.dL^-1
same,Total cholesterol red.: mean (SD),[1]; [7],54.1 (35.2) mg.dL^-1
same,Triglyceride red.: ln(g.mean) (CV),[1]; [7],5.3 (38.1) mg.dL^-1
same,plasma CETP concentration,[2]; end of the trial (baseline 2.03±0.53),1.71±0.46 µg per milliliter
same,reduction in plasma CETP concentrations,[2]; end of the trial compared with baseline,16%
same,progression of coronary atherosclerosis compared with counterparts in the placebo group,"[3]; B2B2 homozygotes, end of the study",statistically non-significant larger progression
same,MOD decrease: median (IQR),[3]; [5],0.01 (.19) mm
same,MSD decrease: mean (SD),[3]; [5],0.05 (.16) mm
same,MOD decrease: median (IQR),[3]; [6],0.04 (.21) mm
same,MSD decrease: mean (SD),[3]; [6],0.07 (.20) mm
same,MOD decrease: median (IQR),[3]; [7],0.04 (.22) mm
same,MSD decrease: mean (SD),[3]; [7],0.09 (.16) mm
same,progression of coronary atherosclerosis compared with counterparts in the placebo group,"[3]; carriers of one B1 allele (B1B2), MOD, P<0.01",significantly less focal atherosclerosis
same,progression of coronary atherosclerosis compared with counterparts in the placebo group,"[3]; carriers of two B1 alleles (B1B1), smaller decreases of MSD and MOD (P<0.001, P<0.002)",significantly less progression of coronary atherosclerosis
same,Events (yes/no): (%),[4]; [5],2.9%
same,Events (yes/no): n,[4]; [5],4
same,Events (yes/no): (%),[4]; [6],1.9%
same,Events (yes/no): n,[4]; [6],4
same,Events (yes/no): (%),[4]; [7],0.0%
same,Events (yes/no): n,[4]; [7],0
